Measurements as given in patent US6706663B2, “Herbicidal 3-heterocyclic substituted benzisothiazole and benzisoxazole compounds” (Wyeth, priority 2000, dated 2004).

How the values were obtained:
[1] = system: IPOHE (Ipomoea hederacea); experiment: Postemergence herbicidal evaluation; type: in vivo, (L.) Jacq.; settings: postemergence
How it was run: (§1)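 Seedlings grown for about two weeks were sprayed postemergence and then kept under standard greenhouse care. Injury was rated visually 4–5 weeks after treatment on a 0–9 scale against untreated controls, and ratings from repeat tests were averaged.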

[2] = system: ECHCG (Echinochloa crus-galli); experiment: Postemergence herbicidal evaluation; type: in vivo, (L.) Beau; settings: postemergence
How it was run: as §1

[3] = system: SETVI (Setaria viridis); experiment: Postemergence herbicidal evaluation; type: in vivo, (L.) Beau; settings: postemergence
How it was run: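 Visual injury score (0-9: stand, vigor, malformation, size, chlorosis, overall appearance vs untreated control) taken four to five weeks post-spray. Two-week-old seedlings received about 0.0040 to 1.000 kg/ha active compound in acetone/water with 0.5% TWEEN 20.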

[4] = system: GLXMAW (Soybean, Williams); experiment: Postemergence herbicidal evaluation; type: in vivo, Glycine max, (L.) Merr. cv Williams; settings: postemergence
How it was run: as §1

[5] = system: ORYSAT (Rice, Tebonnet); experiment: Postemergence herbicidal evaluation; type: in vivo, Oryza sativa, (L.) Tebonnet; settings: postemergence
How it was run: as §1

[6] = system: TRZAWR (Wheat, Winter, cv Riband); experiment: Postemergence herbicidal evaluation; type: in vivo, Triticum aestivum; settings: postemergence
How it was run: as §1

[7] = system: ZEAMX (Corn, Field); experiment: Postemergence herbicidal evaluation; type: in vivo, Zea mays, L.; settings: postemergence
How it was run: as §1

[8] = system: ABUTH (Abutilon theophrasti); experiment: Preemergence herbicidal evaluation; type: in vivo, Medic.; settings: rated 4-5 weeks after treatment
[9] = system: AMBEL (Ambrosia artemisifolia); experiment: Preemergence herbicidal evaluation; type: in vivo, L.; settings: rated 4-5 weeks after treatment
How it was run: (§2)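 Test compound is applied in aqueous acetone to cups just after seeding. Cups are watered and maintained on greenhouse benches. Each cup is scored 0–9 by eye relative to a control after four to five weeks.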

[10] = system: CASOB (Cassia obtusifolia); experiment: Preemergence herbicidal evaluation; type: in vivo, L.; settings: rated 4-5 weeks after treatment
How it was run: as §2

[11] = system: CHEAL (Chenopodium album); experiment: Preemergence herbicidal evaluation; type: in vivo, L.; settings: rated 4-5 weeks after treatment
How it was run: as §2

[12] = system: GALAP (Galium aparine); experiment: Preemergence herbicidal evaluation; type: in vivo; settings: rated 4-5 weeks after treatment
How it was run: as §2

[13] = system: ECHCG (Echinochloa crus-galli); experiment: Preemergence herbicidal evaluation; type: in vivo, (L.) Beau; settings: rated 4-5 weeks after treatment
How it was run: as §2

[14] = system: SETVI (Setaria viridis); experiment: Preemergence herbicidal evaluation; type: in vivo, (L.) Beau; settings: rated 4-5 weeks after treatment
How it was run: as §2

[15] = system: ORYSAT (Rice, Tebonnet); experiment: Preemergence herbicidal evaluation; type: in vivo, Oryza sativa, (L.) Tebonnet; settings: rated 4-5 weeks after treatment
[16] = system: TRZAWR (Wheat, Winter, cv Riband); experiment: Preemergence herbicidal evaluation; type: in vivo, Triticum aestivum; settings: rated 4-5 weeks after treatment
How it was run: as §2

[17] = system: ECHORC (Echinochloa oryzoides); experiment: Flooded paddy, preemergence weed control; type: in vivo, Echinochloa oryzoides (Ard.) Fritsch.; settings: rated 3-4 weeks after treatment, 0-9 rating scale
How it was run: (§3)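 Seeds or propagating organs were sown in the top 0.5 cm of silt loam soil, flooded, and the water kept 1.5 to 3 cm above the soil surface throughout. Plants were grown in the greenhouse and rated visually on a 0-9 scale against a control.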

[18] = system: MOOVA (Monochoria vaginalis); experiment: Flooded paddy, preemergence weed control; type: in vivo, Presl.; settings: rated 3-4 weeks after treatment, 0-9 rating scale
How it was run: as §3

C[C@@H]1C[C@H](C)OC(c2nsc3cc(F)c(-n4c(=O)cc(C(F)(F)F)n(C)c4=O)cc23)O1 (stereo partly drawn) [Compound 67, 3-[3-[(4R,6S)-4,6-dimethyl-m-dioxan-2-yl]-6-fluoro-1,2-benzisothiazol-5-yl]-1-methyl-6-(trifluoromethyl)uracil]
5.5: ORYSAT herbicidal rating ([5]; rate 0.0620 kg/ha) | ZEAMX herbicidal rating ([7]; rate 0.0320 kg/ha) | Preemergence herbicidal rating CASOB ([10]; Rate 0.0620 kg/ha)
0.0: herbicidal rating, MOOVA ([18]; rate 0.0080 kg/ha)
3.0: ECHCG herbicidal rating ([2]; rate 0.0320 kg/ha)
7.0: SETVI herbicidal rating ([3]; rate 0.0620 kg/ha)
5.0: Preemergence herbicidal rating CASOB ([10]; Rate 0.1250 kg/ha)
4.5: ORYSAT herbicidal rating ([5]; rate 0.0320 kg/ha) | herbicidal rating, ECHORC ([17]; rate 0.0080 kg/ha)
9.0: IPOHE herbicidal rating ([1]; rate 0.0320 kg/ha) | IPOHE herbicidal rating ([1]; rate 0.0620 kg/ha) | SETVI herbicidal rating ([3]; rate 0.0320 kg/ha) | GLXMAW herbicidal rating ([4]; rate 0.0320 kg/ha) | GLXMAW herbicidal rating ([4]; rate 0.0620 kg/ha) | Preemergence herbicidal rating ABUTH ([8]; Rate 0.0620 kg/ha) | Preemergence herbicidal rating ABUTH ([8]; Rate 0.1250 kg/ha) | Preemergence herbicidal rating AMBEL ([9]; Rate 0.0620 kg/ha) | Preemergence herbicidal rating AMBEL ([9]; Rate 0.1250 kg/ha) | Preemergence herbicidal rating CHEAL ([11]; Rate 0.0620 kg/ha) | Preemergence herbicidal rating CHEAL ([11]; Rate 0.1250 kg/ha) | Preemergence herbicidal rating GALAP ([12]; Rate 0.1250 kg/ha) | Preemergence herbicidal rating ECHCG ([13]; Rate 0.0620 kg/ha) | Preemergence herbicidal rating ECHCG ([13]; Rate 0.1250 kg/ha) | Preemergence herbicidal rating SETVI ([14]; Rate 0.0620 kg/ha) | Preemergence herbicidal rating SETVI ([14]; Rate 0.1250 kg/ha) | Preemergence herbicidal rating ORYSAT ([15]; Rate 0.0620 kg/ha) | Preemergence herbicidal rating ORYSAT ([15]; Rate 0.1250 kg/ha) | Preemergence herbicidal rating TRZAWR ([16]; Rate 0.0620 kg/ha) | Preemergence herbicidal rating TRZAWR ([16]; Rate 0.1250 kg/ha) | herbicidal rating, ECHORC ([17]; rate 0.0320 kg/ha) | herbicidal rating, ECHORC ([17]; rate 0.1250 kg/ha) | herbicidal rating, MOOVA ([18]; rate 0.0320 kg/ha) | herbicidal rating, MOOVA ([18]; rate 0.1250 kg/ha)
4.0: ECHCG herbicidal rating ([2]; rate 0.0620 kg/ha) | TRZAWR herbicidal rating ([6]; rate 0.0320 kg/ha) | TRZAWR herbicidal rating ([6]; rate 0.0620 kg/ha)
8.0: Preemergence herbicidal rating GALAP ([12]; Rate 0.0620 kg/ha)
6.0: ZEAMX herbicidal rating ([7]; rate 0.0620 kg/ha)

Cc1sccc1-c1nsc2ccc(-n3c(=O)cc(C(F)(F)F)n(C)c3=O)cc12 [Compound 68, 2,4(1H,3H)-pyrimidinedione, 1-methyl-3-[3-(2-methyl-3-thienyl)-1,2-benzisothiazol-5-yl]-6-(trifluoromethyl)-]
3.0: Preemergence herbicidal rating CASOB ([10]; Rate 0.1250 kg/ha)
4.5: TRZAWR herbicidal rating ([6]; rate 0.0620 kg/ha)
6.0: ZEAMX herbicidal rating ([7]; rate 0.0620 kg/ha) | Preemergence herbicidal rating GALAP ([12]; Rate 0.1250 kg/ha)
5.5: ZEAMX herbicidal rating ([7]; rate 0.0320 kg/ha) | Preemergence herbicidal rating CASOB ([10]; Rate 0.2500 kg/ha)
3.5: Preemergence herbicidal rating AMBEL ([9]; Rate 0.0620 kg/ha) | Preemergence herbicidal rating ORYSAT ([15]; Rate 0.1250 kg/ha)
6.5: GLXMAW herbicidal rating ([4]; rate 0.0320 kg/ha)
0.5: Preemergence herbicidal rating CASOB ([10]; Rate 0.0620 kg/ha)
5.0: ECHCG herbicidal rating ([2]; rate 0.0620 kg/ha) | ORYSAT herbicidal rating ([5]; rate 0.0620 kg/ha) | Preemergence herbicidal rating AMBEL ([9]; Rate 0.1250 kg/ha) | Preemergence herbicidal rating ORYSAT ([15]; Rate 0.2500 kg/ha) | Preemergence herbicidal rating TRZAWR ([16]; Rate 0.1250 kg/ha)
4.0: ECHCG herbicidal rating ([2]; rate 0.0320 kg/ha) | SETVI herbicidal rating ([3]; rate 0.0320 kg/ha) | ORYSAT herbicidal rating ([5]; rate 0.0320 kg/ha) | TRZAWR herbicidal rating ([6]; rate 0.0320 kg/ha)
9.0: IPOHE herbicidal rating ([1]; rate 0.0320 kg/ha) | IPOHE herbicidal rating ([1]; rate 0.0620 kg/ha) | Preemergence herbicidal rating ABUTH ([8]; Rate 0.1250 kg/ha) | Preemergence herbicidal rating ABUTH ([8]; Rate 0.2500 kg/ha) | Preemergence herbicidal rating AMBEL ([9]; Rate 0.2500 kg/ha) | Preemergence herbicidal rating CHEAL ([11]; Rate 0.0620 kg/ha) | Preemergence herbicidal rating CHEAL ([11]; Rate 0.1250 kg/ha) | Preemergence herbicidal rating CHEAL ([11]; Rate 0.2500 kg/ha) | Preemergence herbicidal rating GALAP ([12]; Rate 0.2500 kg/ha) | Preemergence herbicidal rating ECHCG ([13]; Rate 0.1250 kg/ha) | Preemergence herbicidal rating ECHCG ([13]; Rate 0.2500 kg/ha) | Preemergence herbicidal rating SETVI ([14]; Rate 0.0620 kg/ha) | Preemergence herbicidal rating SETVI ([14]; Rate 0.1250 kg/ha) | Preemergence herbicidal rating SETVI ([14]; Rate 0.2500 kg/ha) | herbicidal rating, ECHORC ([17]; rate 0.1250 kg/ha) | herbicidal rating, MOOVA ([18]; rate 0.0320 kg/ha) | herbicidal rating, MOOVA ([18]; rate 0.1250 kg/ha)
8.0: SETVI herbicidal rating ([3]; rate 0.0620 kg/ha)
2.0: Preemergence herbicidal rating ORYSAT ([15]; Rate 0.0620 kg/ha) | Preemergence herbicidal rating TRZAWR ([16]; Rate 0.0620 kg/ha)
8.5: Preemergence herbicidal rating ABUTH ([8]; Rate 0.0620 kg/ha) | Preemergence herbicidal rating ECHCG ([13]; Rate 0.0620 kg/ha) | herbicidal rating, ECHORC ([17]; rate 0.0320 kg/ha)
7.0: GLXMAW herbicidal rating ([4]; rate 0.0620 kg/ha) | Preemergence herbicidal rating GALAP ([12]; Rate 0.0620 kg/ha) | Preemergence herbicidal rating TRZAWR ([16]; Rate 0.2500 kg/ha) | herbicidal rating, ECHORC ([17]; rate 0.0080 kg/ha) | herbicidal rating, MOOVA ([18]; rate 0.0080 kg/ha)
